Key:
Type in all cases: cell-based
[1] = target: T1, 17-beta-hydroxysteroid dehydrogenase type 2 (Homo sapiens) (UniProt P37059); assay: Inhibitory activity at 10 uM against 17-beta-hydroxysteroid dehydrogenase type 2 in MDAMB-231 human breast cancer cells using 2 nM [3H]estradiol; conditions: Cancer cell lines
T1 sequence (whole entry): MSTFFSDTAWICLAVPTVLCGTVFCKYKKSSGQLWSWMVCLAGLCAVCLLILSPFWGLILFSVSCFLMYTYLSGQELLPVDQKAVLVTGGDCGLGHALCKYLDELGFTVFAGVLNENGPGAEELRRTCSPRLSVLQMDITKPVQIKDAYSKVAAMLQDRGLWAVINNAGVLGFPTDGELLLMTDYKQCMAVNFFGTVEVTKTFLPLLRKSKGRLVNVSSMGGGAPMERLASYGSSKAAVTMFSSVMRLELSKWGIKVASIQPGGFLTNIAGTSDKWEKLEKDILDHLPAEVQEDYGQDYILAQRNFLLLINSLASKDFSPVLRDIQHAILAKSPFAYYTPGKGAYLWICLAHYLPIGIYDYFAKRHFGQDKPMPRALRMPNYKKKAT

[2] = target: T2, 17-beta-hydroxysteroid dehydrogenase type 1 (Homo sapiens) (UniProt P14061); assay: Inhibitory activity at 10 uM against 17-beta-hydroxysteroid dehydrogenase type 1 expressed in T47D human breast cancer cells using 2 nM [3H]estrone
T2 sequence (whole entry): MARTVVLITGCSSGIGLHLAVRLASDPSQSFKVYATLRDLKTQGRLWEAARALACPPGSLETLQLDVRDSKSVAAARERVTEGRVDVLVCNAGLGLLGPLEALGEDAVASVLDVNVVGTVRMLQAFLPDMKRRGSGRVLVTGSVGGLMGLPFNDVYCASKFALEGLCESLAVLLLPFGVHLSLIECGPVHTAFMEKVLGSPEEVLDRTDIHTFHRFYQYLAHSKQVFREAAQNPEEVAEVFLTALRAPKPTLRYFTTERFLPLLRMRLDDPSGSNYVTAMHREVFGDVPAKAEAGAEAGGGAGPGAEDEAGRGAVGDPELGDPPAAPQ

[3] = target: T3, 17-beta-hydroxysteroid dehydrogenase type 1 (Homo sapiens, UniProt P14061); assay: Inhibition of 17-beta-hydroxysteroid dehydrogenase type 1 expressed in T47D human breast cancer cells using 2 nM [3H]estrone
T3 sequence (P14061 whole entry): T2 sequence (whole entry)

SMILES	inhibition [1] [%]	inhibition [2] [%]	IC50 [3] [nM]
C[C@]12CC[C@@H]3c4ccc(O)cc4CCC3[C@@H]1CC(C#N)C2=O (single isomer, unassigned)	17	77	10000
CCOC(=O)C(=O)C1=C(O)[C@@]2(C)CCC3c4ccc(O)cc4CCC3C2C1 (stereo not given in full)	7	75	
C[C@]12CCC3c4ccc(O)cc4CCC3C1CC(C(=O)C(F)(F)F)=C2O (stereo not given in full)	1.5	78	
CN1CCN(CNC(=O)c2[nH]nc3c2CC2C4CCc5cc(O)ccc5C4CC[C@]32C)CC1 (stereo not given in full)	1	50	
Cn1cccc1CNC(=O)c1[nH]nc2c1CC1C3CCc4cc(O)ccc4C3CC[C@]21C (stereo not given in full)	4	89	
C[C@]12CCC3c4ccc(O)cc4CCC3C1Cc1c2n[nH]c1C(F)(F)F (stereo not given in full)	36	75	
C[C@]12CCC3c4ccc(O)cc4CCC3C1Cc1c2n[nH]c1C(=O)O (stereo not given in full)	6	32	
C[C@]12CCC3c4ccc(O)cc4CCC3C1Cc1c2n[nH]c1C(=O)NCc1cccnc1 (stereo not given in full)	28	92	
C[C@]12CCC3c4ccc(O)cc4CCC3C1Cc1c2n[nH]c1C(=O)NCCc1cccnc1 (stereo not given in full)	3	99	
C[C@]12CC[C@@H]3c4ccc(O)cc4CCC3[C@@H]1C/C(=N/O)C2=O (single isomer, unassigned)	5	95	1100
C[C@]12CCC3c4ccc(O)cc4CCC3C1Cc1c2n[nH]c1C(=O)NCC1CCCO1 (stereo not given in full)	4	87	
CC1(C#N)C[C@H]2C3CCc4cc(O)ccc4[C@H]3CC[C@]2(C)C1=O (single isomer, unassigned)	12	85	
CC1(C)C[C@H]2C3CCc4cc(O)ccc4[C@H]3CC[C@]2(C)C1=O (single isomer, unassigned)	35	95	
C[C@]12CCC3c4ccc(O)cc4CCC3C1Cc1c[nH]nc12 (stereo not given in full)	32	97	180
C[C@]12CCC3c4ccc(O)cc4CCC3C1Cc1c2n[nH]c1C(=O)NCc1ccccn1 (stereo not given in full)	9	93	
C[C@]12CC[C@@H]3c4ccc(O)cc4CCC3[C@@H]1CC(=N/O)/C2=N\O (single isomer, unassigned)	2	55	
Cc1cnc(CNC(=O)c2[nH]nc3c2CC2C4CCc5cc(O)ccc5C4CC[C@]32C)cn1 (stereo not given in full)	61	80	

Now from value to compound, other results behind:

inhibition [1] [%]	inhibition [2] [%]	SMILES	IC50 [3] [nM]
55	83	COCCn1ncc2c1[C@@]1(C)CCC3c4ccc(O)cc4CCC3C1C2 (stereo not given in full)	
44	95	C[C@]12CCC3c4ccc(O)cc4CCC3C1Cc1cn(CCC#N)nc12 (stereo not given in full)	
14	62	CNC(=O)c1[nH]nc2c1CC1C3CCc4cc(O)ccc4C3CC[C@]21C (stereo not given in full)	
1	94	C[C@]12CCC3c4ccc(O)cc4CCC3C1Cc1c(CO)n[nH]c12 (stereo not given in full)	
61	77	CC(C)Cn1cc2c(n1)[C@@]1(C)CCC3c4ccc(O)cc4CCC3C1C2 (stereo not given in full)	
34	78	C[C@]12CCC3c4ccc(O)cc4CCC3C1Cc1cccnc12 (stereo not given in full)	
44	70	CC(C)Cn1ncc2c1[C@@]1(C)CCC3c4ccc(O)cc4CCC3C1C2 (stereo not given in full)	
32	43	Cn1ncc2c1[C@@]1(C)CCC3c4ccc(O)cc4CCC3C1C2 (stereo not given in full)	
7	94	CCOC(=O)c1[nH]nc2c1CC1C3CCc4cc(O)ccc4C3CC[C@]21C (stereo not given in full)	
15	97	C[C@]12CCC3c4ccc(O)cc4CCC3C1CC(C=O)=C2O (stereo not given in full)	110
6	88	CCN(C)C(=O)c1[nH]nc2c1CC1C3CCc4cc(O)ccc4C3CC[C@]21C (stereo not given in full)	
0	57	CC(C)NC(=O)c1[nH]nc2c1CC1C3CCc4cc(O)ccc4C3CC[C@]21C (stereo not given in full)	
19	95	COC(=O)Cn1cc2c(n1)[C@@]1(C)CCC3c4ccc(O)cc4CCC3C1C2 (stereo not given in full)	
48	95	COCCn1cc2c(n1)[C@@]1(C)CCC3c4ccc(O)cc4CCC3C1C2 (stereo not given in full)	
24	94	Cn1cc2c(n1)[C@@]1(C)CCC3c4ccc(O)cc4CCC3C1C2 (stereo not given in full)	
30	79	COC(=O)Cn1ncc2c1[C@@]1(C)CCC3c4ccc(O)cc4CCC3C1C2 (stereo not given in full)	

— ChEMBL document CHEMBL1141073, “E-ring modified steroids as novel potent inhibitors of 17beta-hydroxysteroid dehydrogenase type 1” (J Med Chem, 2005)
